Where two headings read alike, the source gives them in different places.
Assays:
[1] = target: T1, IKKε (Homo sapiens, UniProt Q14164); experiment: In-vitro IKKε kinase assay ([γ33]ATP filter-plate); type: biochemical
T1 construct: His-tag; made in house; host or cells: Sf9 insect cells
T1 sequence (Q14164 1-716): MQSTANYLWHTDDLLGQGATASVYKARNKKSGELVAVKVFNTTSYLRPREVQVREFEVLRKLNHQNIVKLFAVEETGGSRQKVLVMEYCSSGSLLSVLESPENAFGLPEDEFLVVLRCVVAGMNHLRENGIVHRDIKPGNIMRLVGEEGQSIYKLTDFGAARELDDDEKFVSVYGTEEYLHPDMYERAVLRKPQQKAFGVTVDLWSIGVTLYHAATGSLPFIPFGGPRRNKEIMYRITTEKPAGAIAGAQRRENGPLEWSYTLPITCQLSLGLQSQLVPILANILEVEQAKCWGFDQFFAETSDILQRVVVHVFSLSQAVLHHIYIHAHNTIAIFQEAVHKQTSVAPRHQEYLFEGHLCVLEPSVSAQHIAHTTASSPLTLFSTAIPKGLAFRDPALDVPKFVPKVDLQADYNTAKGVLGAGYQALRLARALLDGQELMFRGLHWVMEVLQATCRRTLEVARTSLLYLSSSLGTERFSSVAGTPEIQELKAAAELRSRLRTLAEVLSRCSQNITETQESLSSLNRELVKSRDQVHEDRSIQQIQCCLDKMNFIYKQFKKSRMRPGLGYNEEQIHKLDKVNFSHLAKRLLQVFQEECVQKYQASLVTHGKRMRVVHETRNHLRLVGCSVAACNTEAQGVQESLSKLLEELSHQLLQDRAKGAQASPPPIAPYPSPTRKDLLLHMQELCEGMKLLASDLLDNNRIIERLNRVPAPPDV
How it was run: (§1)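 Phosphorylation of casein or myelin basic protein was counted by P-81 filter capture after 30-45 min reactions stopped with phosphoric acid, with counts normalized to DMSO after background subtraction. ATP was twice Km: 60 μM for TBK1 and 32 μM for IKKε, plus [γ33]ATP. Sf9-expressed His-tag enzymes were used at normal/sensitized levels of 0.1/0.02 μg/ml (TBK1) and 0.1/0.015 μg/ml (IKKε).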

[2] = target: T2, TBK1 (Homo sapiens, UniProt Q9UHD2); experiment: In-vitro TBK1 kinase assay ([γ33]ATP filter-plate); type: biochemical
T2 construct: His-tag; made in house; host or cells: Sf9 insect cells
T2 sequence (Q9UHD2 1-729): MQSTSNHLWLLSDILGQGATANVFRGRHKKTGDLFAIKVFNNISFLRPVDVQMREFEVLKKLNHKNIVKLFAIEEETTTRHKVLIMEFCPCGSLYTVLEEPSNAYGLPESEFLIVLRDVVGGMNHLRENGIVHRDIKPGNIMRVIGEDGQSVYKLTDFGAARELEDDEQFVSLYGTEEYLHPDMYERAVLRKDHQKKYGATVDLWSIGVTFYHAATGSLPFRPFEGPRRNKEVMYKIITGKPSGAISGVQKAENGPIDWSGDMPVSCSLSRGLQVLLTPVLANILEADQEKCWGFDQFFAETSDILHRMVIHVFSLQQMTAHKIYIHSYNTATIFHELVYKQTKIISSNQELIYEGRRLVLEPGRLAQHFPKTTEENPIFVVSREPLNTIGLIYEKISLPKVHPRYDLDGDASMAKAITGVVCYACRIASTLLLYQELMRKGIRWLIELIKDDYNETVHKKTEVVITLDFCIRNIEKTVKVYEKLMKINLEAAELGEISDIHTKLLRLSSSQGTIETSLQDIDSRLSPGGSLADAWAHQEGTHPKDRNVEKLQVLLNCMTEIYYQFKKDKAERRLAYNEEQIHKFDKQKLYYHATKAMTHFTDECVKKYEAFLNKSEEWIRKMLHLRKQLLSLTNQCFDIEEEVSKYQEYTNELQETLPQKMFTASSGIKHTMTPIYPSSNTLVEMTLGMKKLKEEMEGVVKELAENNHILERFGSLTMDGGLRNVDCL
How it was run: as §1

[3] = system: IKKε-mediated phosphorylation of IRF3; experiment: In-situ phosphorylation of IRF3 (pIRF3 Ser396 ELISA) in HEK293T cells cotransfected with IRF3 and IKKε; type: cell-based; settings: Homo sapiens, HEK-293T
How it was run: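 For the IRF3 ELISA, HEK293T cells cotransfected with IRF3 and IKKε were replated at 20,000/well and treated 20 h. Phospho-Ser396 IRF3 was measured by ELISA and normalised to DMSO, with viability checked by CellTiter-Glo. For IRF7, cells transfected with IRF7 and TBK1 were treated overnight, and pSer477/Ser479 IRF7 was detected by Western blot.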

[4] = text bins, read-out: IC50 for inhibition of the kinase activity of IKKε
[5] = text bins, read-out: IC50 for inhibition of the kinase activity of TBK1
[6] = HEK293T cells, 20 hours, text bins, read-out: IC50 for inhibition of the in-situ IKKε-mediated phosphorylation of IRF3
[7] = HEK293T cells in culture, Table 3, read-out: pIRF3 ELISA IC50

| SMILES | IC50 [1, 4] | IC50 [2, 5] | IC50 [3, 6] | IC50 ([1]; Table 3, read-out: IKKε IC50) | IC50 ([2]; Table 3, read-out: TBK1 IC50) | IC50 [3, 7] |
| --- | --- | --- | --- | --- | --- | --- |
| COc1cc(Nc2nccc(-c3ccc(OC4CCOCC4)c(C#N)c3)n2)ccc1C(=O)N(C)C1CCN(C)C1 (centres unmarked) [compound 385, 4-({4-[3-cyano-4-(tetrahydro-2H-pyran-4-yloxy)phenyl]pyrimidin-2-yl}amino)-2-methoxy-N-methyl-N-(1-methylpyrrolidin-3-yl)benzamide] | < 5 nM | < 10 nM | < 100 nM | – | – | – |
| COc1ccc(Nc2nccc(-c3ccc(OC4CCOCC4)c(C#N)c3)n2)cc1OCCCN1CCN(C(=O)C(C)C)CC1 [compound 524, 5-{2-[(4-methoxy-3-{3-[4-(2-methylpropanoyl)piperazin-1-yl]propoxy}phenyl)amino]pyrimidin-4-yl}-2-(tetrahydro-2H-pyran-4-yloxy)benzonitrile] | < 5 nM | < 10 nM | 100 to 250 nM | – | – | – |
| N#Cc1cc(-c2ccnc(Nc3ccc(CN4CCOCC4)cc3)n2)ccc1OC1CCOCC1 [compound 510, 5-(2-{[4-(morpholin-4-ylmethyl)phenyl]amino}pyrimidin-4-yl)-2-(tetrahydro-2H-pyran-4-yloxy)benzonitrile] | < 5 nM | < 10 nM | < 100 nM | – | – | – |
| COc1cc(Nc2nccc(-c3ccc(OC4CCOCC4)c(C#N)c3)n2)ccc1C(=O)NC1CCN(C)CC1 [compound 381, 4-({4-[3-cyano-4-(tetrahydro-2H-pyran-4-yloxy)phenyl]pyrimidin-2-yl}amino)-2-methoxy-N-(1-methylpiperidin-4-yl)benzamide] | < 5 nM | < 10 nM | 250 to 500 nM | 0.6 nM | 0.4 nM | 349 nM |
| COc1cc(Nc2nccc(-c3ccc(OC4CCOCC4)c(C#N)c3)n2)cc(OC)c1OC [Example 290, 2-(Tetrahydro-2H-pyran-4-yloxy)-5-{2-[(3,4,5-trimethoxyphenyl)amino]pyrimidin-4-yl}benzonitrile] | < 5 nM | < 10 nM | 250 to 500 nM | – | – | – |
| COc1cc(Nc2nccc(-c3ccc(OC4CCOCC4)c(C#N)c3)n2)ccc1S(=O)(=O)N1CCN(C)CC1 [Example 114, 5-[2-({3-methoxy-4-[(4-methylpiperazin-1-yl)sulfonyl]phenyl}amino)pyrimidin-4-yl]-2-(tetrahydro-2H-pyran-4-yloxy)benzonitrile] | < 5 nM | < 10 nM | < 100 nM | – | – | – |
| COCCNCc1ccc(Nc2nccc(-c3ccc(NC(=O)C4CC4)c(C#N)c3)n2)cc1OC [compound 556] | 5 to 50 nM | < 10 nM | < 100 nM | – | – | – |
| COCCNCc1ccc(Nc2nccc(-c3ccc(OC4CCOCC4)c(C#N)c3)n2)cc1OC [compound 478, 5-{2-[(3-Methoxy-4-{[(2-methoxyethyl)amino]methyl}phenyl)amino]pyrimidin-4-yl}-2-(tetrahydro-2H-pyran-4-yloxy)benzonitrile] | < 5 nM | < 10 nM | < 100 nM | – | – | – |
| COc1cc(Nc2nccc(-c3ccc(OC4CCOCC4)c(C#N)c3)n2)ccc1S(=O)(=O)NCCCN1CCOCC1 [Example 176] | < 5 nM | < 10 nM | < 100 nM | 0.9 nM | 0.3 nM | 12.5 nM |
| COc1cc(-c2ccnc(Nc3ccc(N4CCOCC4)cc3)n2)cc(C#N)c1OC1CCNCC1 [compound 440, 3-Methoxy-5-(2-{[4-(morpholin-4-yl)phenyl]amino}pyrimidin-4-yl)-2-(piperidin-4-yloxy)benzonitrile] | < 5 nM | < 10 nM | < 100 nM | – | – | – |
| CN(C)C(=O)Nc1cccc(Nc2nccc(-c3ccc(OC4CCOCC4)c(C#N)c3)n2)c1 [compound 631, 3-[3-({4-[3-Cyano-4-(tetrahydro-2H-pyran-4-yloxy)phenyl]pyrimidin-2-yl}amino)phenyl]-1,1-dimethylurea] | < 5 nM | < 10 nM | < 100 nM | 0.8 nM | 1.3 nM | 31.9 nM |
| COc1cc(Nc2nccc(-c3ccc(OC4CCOCC4)c(C#N)c3)n2)ccc1N1CCOCC1 [Example 73, 5-(2-{[3-methoxy-4-(morpholin-4-yl)phenyl]amino}pyrimidin-4-yl)-2-(tetrahydro-2H-pyran-4-yloxy)benzonitrile] | < 5 nM | < 10 nM | < 100 nM | – | – | – |
| CCOC1CN(C(=O)c2ccc(Nc3nccc(-c4ccc(OC5CCOCC5)c(C#N)c4)n3)cc2OC)C1 [compound 599, 5-[2-({4-[(3-Ethoxyazetidin-1-yl)carbonyl]-3-methoxyphenyl}amino)pyrimidin-4-yl]-2-(tetrahydro-2H-pyran-4-yloxy)benzonitrile] | < 5 nM | < 10 nM | < 100 nM | – | – | – |
| N#Cc1cc(-c2ccnc(Nc3ccc(CS(=O)(=O)N4CCOCC4)cc3)n2)ccc1OC1CCOCC1 [compound 404, 5-[2-({4-[(Morpholin-4-ylsulfonyl)methyl]phenyl}amino)pyrimidin-4-yl]-2-(tetrahydro-2H-pyran-4-yloxy)benzonitrile] | < 5 nM | < 10 nM | < 100 nM | – | – | – |
| COc1ccc(Nc2nccc(-c3ccc(OC4CCOCC4)c(C#N)c3)n2)cc1OCCCC1CCN(C(C)C)CC1 [compound 520, 5-{2-[(4-medthoxy-3-{3-[1-(propan-2-yl)piperidin-4-yl]propoxy}phenyl)amino]pyrimidin-4-yl}-2-(tetrahydro-2H-pyran-4-yloxy)benzonitrile] | < 5 nM | < 10 nM | < 100 nM | – | – | – |
| COc1cc(Nc2nccc(-c3ccc(OC4CCOCC4)c(C#N)c3)n2)ccc1C(=O)NCCCN(C)C [Example 103, 4-({4-[3-cyano-4-(tetrahydro-2H-pyran-4-yloxy)phenyl]pyrimidin-2-yl}amino)-N-[3-(dimethylamino)propyl]-2-methoxybenzamide] | < 5 nM | < 10 nM | 250 to 500 nM | – | – | – |
| N#Cc1cc(-c2ccnc(Nc3cccc(OCCCN4CCOCC4)c3)n2)ccc1OC1CCOCC1 [compound 528, 5-[2-({3-[3-(morpholin-4-yl)propoxy]phenyl}amino)pyrimidin-4-yl]-2-(tetrahydro-2H-pyran-4-yloxy)benzonitrile] | 5 to 50 nM | < 10 nM | 250 to 500 nM | – | – | – |
| N#Cc1cc(-c2ccnc(Nc3cccc(NC(=O)N4CCOCC4)c3)n2)ccc1OC1CCOCC1 [compound 646, N-[3-({4-[3-Cyano-4-(tetrahydro-2H-pyran-4-yloxy)phenyl]pyrimidin-2-yl}amino)phenyl] morpholine-4-carboxamide] | < 5 nM | < 10 nM | < 100 nM | 0.7 nM | 1.3 nM | 30.9 nM |
| N#Cc1cc(-c2ccnc(Nc3cccc(CS(=O)(=O)NCCO)c3)n2)ccc1NC(=O)C1CC1 [compound 627, N-(2-Cyano-4-{2-[(3-{[(2-hydroxyethyl)sulfamoyl]methyl}phenyl)amino]pyrimidin-4-yl}phenyl) cyclopropane-carboxamide] | < 5 nM | < 10 nM | – | 3 nM | 1.3 nM | 1100 nM |
